Laboratory results reported in patent US12162890B2 (Novartis AG, priority 2015, dated 2024).

biological target: HEK293 cells with stable expression of the GRIN1 gene and tetracycline-inducible expression of the GRIN2B gene (NMDA receptor, NR2B) (Homo sapiens, UniProt Q13224); test: Fluo-8 Ca2+ flux assay: reversal of Ro 25-6981-mediated suppression of the Ca2+ response to co-agonist (glutamate/glycine); type: cell-based; details: reversal of the Ro 25-6981 suppression of the Ca2+ response to co-agonist (glutamate/glycine); note: test concentration or dose not given here
Sequence (Q13224 27-1484, other chains not shown): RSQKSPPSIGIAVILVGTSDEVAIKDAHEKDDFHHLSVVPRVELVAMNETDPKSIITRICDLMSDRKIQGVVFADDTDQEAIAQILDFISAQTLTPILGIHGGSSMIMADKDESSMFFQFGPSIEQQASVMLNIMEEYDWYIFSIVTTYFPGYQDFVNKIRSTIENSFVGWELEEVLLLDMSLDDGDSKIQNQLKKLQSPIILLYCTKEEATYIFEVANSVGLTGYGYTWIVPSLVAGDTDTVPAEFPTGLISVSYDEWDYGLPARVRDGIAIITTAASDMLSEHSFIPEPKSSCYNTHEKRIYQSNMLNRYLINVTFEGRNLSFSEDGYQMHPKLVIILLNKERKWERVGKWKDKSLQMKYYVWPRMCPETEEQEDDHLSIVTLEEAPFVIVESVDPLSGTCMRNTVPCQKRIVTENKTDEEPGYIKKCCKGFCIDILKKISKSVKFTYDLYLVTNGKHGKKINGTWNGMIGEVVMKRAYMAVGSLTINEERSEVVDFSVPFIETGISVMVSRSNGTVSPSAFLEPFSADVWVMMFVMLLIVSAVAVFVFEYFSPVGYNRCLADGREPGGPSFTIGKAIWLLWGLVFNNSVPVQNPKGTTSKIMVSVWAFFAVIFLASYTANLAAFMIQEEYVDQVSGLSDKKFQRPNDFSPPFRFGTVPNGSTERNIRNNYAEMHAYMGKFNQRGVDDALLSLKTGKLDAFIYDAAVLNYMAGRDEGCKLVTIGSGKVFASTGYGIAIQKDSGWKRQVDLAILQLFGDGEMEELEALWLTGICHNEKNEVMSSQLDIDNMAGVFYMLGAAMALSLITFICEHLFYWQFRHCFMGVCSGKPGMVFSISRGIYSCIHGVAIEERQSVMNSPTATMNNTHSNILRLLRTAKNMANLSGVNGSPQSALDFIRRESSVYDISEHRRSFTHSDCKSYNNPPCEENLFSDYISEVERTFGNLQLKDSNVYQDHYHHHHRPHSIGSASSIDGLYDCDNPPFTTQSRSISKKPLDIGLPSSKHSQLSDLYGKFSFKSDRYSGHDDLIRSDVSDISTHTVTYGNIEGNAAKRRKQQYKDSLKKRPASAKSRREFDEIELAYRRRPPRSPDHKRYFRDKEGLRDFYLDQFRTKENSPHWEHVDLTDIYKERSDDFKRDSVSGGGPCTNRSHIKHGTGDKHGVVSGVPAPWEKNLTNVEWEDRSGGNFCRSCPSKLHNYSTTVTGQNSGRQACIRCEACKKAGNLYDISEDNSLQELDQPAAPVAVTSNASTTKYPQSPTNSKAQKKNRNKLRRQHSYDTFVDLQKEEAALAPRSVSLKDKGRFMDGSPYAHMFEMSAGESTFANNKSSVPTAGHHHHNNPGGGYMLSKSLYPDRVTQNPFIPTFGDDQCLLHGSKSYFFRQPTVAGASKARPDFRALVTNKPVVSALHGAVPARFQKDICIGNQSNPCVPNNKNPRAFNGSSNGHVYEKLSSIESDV

Q: Which “Response Recovered (%)” value does the source give for `Cn1cc(-n2cc(-c3ccc(Cl)c(Cl)c3)c3c(=O)n(CC(=O)N4CC(C)(F)C4)ccc32)cn1` [Example 284, 3-(3,4-dichlorophenyl)-5-(2-(3-fluoro-3-methylazetidin-1-yl)-2-oxoethyl)-1-(1-methyl-1H-pyrazol-4-yl)-1H-pyrrolo[3,2-c]pyridin-4(5H)-one] here?
A: 5.2%

Q: For `CC1(F)CN(C(=O)Cn2ccc3c(c(-c4ccc(F)c(Cl)c4)cn3C3CC3)c2=O)C1` [Example 285, 3-(3-chloro-4-fluorophenyl)-1-cyclopropyl-5-(2-(3-fluoro-3-methylazetidin-1-yl)-2-oxoethyl)-1H-pyrrolo[3,2-c]pyridin-4(5H)-one], which “Response Recovered (%)” value is on record?
A: 140%

Q: `Cn1cc(-n2cc(-c3ccc(F)c(Cl)c3)c3c(=O)n(CC(=O)N4CC(C)(F)C4)ccc32)cn1` [Example 286, 3-(3-chloro-4-fluorophenyl)-5-(2-(3-fluoro-3-methylazetidin-1-yl)-2-oxoethyl)-1-(1-methyl-1H-pyrazol-4-yl)-1H-pyrrolo[3,2-c]pyridin-4(5H)-one] was tested. Which “Response Recovered (%)” value did it give?
A: 130%

Q: `CC1(F)CN(C(=O)Cn2ccc3c(c(-c4ccc(F)c(C(F)(F)F)c4)cn3C3CC3)c2=O)C1` [Example 287, 1-cyclopropyl-3-(4-fluoro-3-(trifluoromethyl)phenyl)-5-(2-(3-fluoro-3-methylazetidin-1-yl)-2-oxoethyl)-1H-pyrrolo[3,2-c]pyridin-4(5H)-one] was tested. Which “Response Recovered (%)” value did it give?
A: 140%

Q: With `CC1(F)CN(C(=O)Cn2ccc3c(c(-c4ccc(Cl)c(Cl)c4)cn3C3CC3)c2=O)C1` [Example 288, 1-cyclopropyl-3-(3,4-dichlorophenyl)-5-(2-(3-fluoro-3-methylazetidin-1-yl)-2-oxoethyl)-1H-pyrrolo[3,2-c]pyridin-4(5H)one] as the compound, how does the “Response Recovered (%)” value read?
A: 130%

Q: Which “Response Recovered (%)” value does the source give for `CC1(F)CN(C(=O)Cn2ccc3c(c(-c4cnc(Cl)c(Cl)c4)cn3C3CC3)c2=O)C1` [Example 289, 1-cyclopropyl-3-(5,6-dichloropyridin-3-yl)-5-(2-(3-fluoro-3-methylazetidin-1-yl)-2-oxoethyl)-1H-pyrrolo[3,2-c]pyridin-4(5H)-one] here?
A: 120%

Q: Which “Response Recovered (%)” value does the source give for `Cc1cc(-c2cn(C3CC3)c3ccn(CC(=O)N4CC(C)(F)C4)c(=O)c23)ccc1F` [Example 290, 1-cyclopropyl-5-(2-(3-fluoro-3-methylazetidin-1-yl)-2-oxoethyl)-3-(4-fluoro-3-methylphenyl)-1H-pyrrolo[3,2-c]pyridin-4(5H)-one] here?
A: 120%

Q: Which “Response Recovered (%)” value does the source give for `CC1(F)CN(C(=O)Cn2ccc3c(c(-c4cnc(F)c(Cl)c4)cn3C3CC3)c2=O)C1` [Example 291, 3-(5-chloro-6-fluoropyridin-3-yl)-1-cyclopropyl-5-(2-(3-fluoro-3-methylazetidin-1-yl)-2-oxoethyl)-1H-pyrrolo[3,2-c]pyridin-4(5H)-one] here?
A: 80%

Q: How did the “Response Recovered (%)” value turn out when `Cc1cc(-c2cn(C3CC3)c3ccn(CC(=O)N4CC(C)(F)C4)c(=O)c23)ccc1Cl` [Example 292, 3-(4-chloro-3-methylphenyl)-1-cyclopropyl-5-(2-(3-fluoro-3-methylazetidin-1-yl)-2-oxoethyl)-1,5-dihydro-4H-pyrrolo[3,2-c]pyridin-4-one] was run?
A: 140%

Q: Which “Response Recovered (%)” value does the source give for `O=C(Cn1ccc2c(c(-c3ccc(Cl)c(Cl)c3)cn2C2CC2)c1=O)N1CC(F)(CF)C1` [Example 293, 1-cyclopropyl-3-(3,4-dichlorophenyl)-5-(2-(3-fluoro-3-(fluoromethyl)azetidin-1-yl)-2-oxoethyl)-1,5-dihydro-4H-pyrrolo[3,2-c]pyridin-4-one] here?
A: 160%

Q: Which “Response Recovered (%)” value does the source give for `CCC1(F)CN(C(=O)Cn2ccc3c(c(-c4cnc(Cl)c(Cl)c4)cn3C3CC3)c2=O)C1` [Example 294, 1-cyclopropyl-3-(5,6-dichloropyridin-3-yl)-5-(2-(3-ethyl-3-fluoroazetidin-1-yl)-2-oxoethyl)-1,5-dihydro-4H-pyrrolo[3,2-c]pyridin-4-one] here?
A: 88%

Q: For `O=C(Cn1cnc2cccc(-c3ccc(Cl)cc3)c2c1=O)N1CCCC1` [Example 295, 5-(4-chlorophenyl)-3-(2-oxo-2-(pyrrolidin-1-yl)ethyl)quinazolin-4(3H)-one], which “Response Recovered (%)” value is on record?
A: 1%

Q: For `O=C(Cn1cnc2cccc(-c3ccc(Cl)cc3)c2c1=O)N1CC(F)(F)C1` [Example 296, 5-(4-chlorophenyl)-3-(2-(3,3-difluoroazetidin-1-yl)-2-oxoethyl)quinazolin-4(3H)-one], which “Response Recovered (%)” value is on record?
A: 9%

Q: For `O=C(Cn1cnc2cccc(-c3ccc(Cl)cc3)c2c1=O)N1CCCC1C(F)(F)F` (centres unmarked) [Example 297, 5-(4-chlorophenyl)-3-(2-oxo-2-(2-(trifluoromethyl)pyrrolidin-1-yl)ethyl)quinazolin-4(3H)-one], which “Response Recovered (%)” value is on record?
A: 3%

Q: `O=C(Cn1cnc2cccc(-c3ccc(Cl)cc3)c2c1=O)N1CCCC1F` (centres unmarked) [Example 298, 5-(4-chlorophenyl)-3-(2-(2-fluoropyrrolidin-1-yl)-2-oxoethyl)quinazolin-4(3H)-one] was tested. Which “Response Recovered (%)” value did it give?
A: 9%

Q: `O=C(Cn1ccc2cccc(-c3ccc(Cl)c(C(F)(F)F)c3)c2c1=O)N1CCCC1` [Example 300, 8-(4-chloro-3-(trifluoromethyl)phenyl)-2-(2-oxo-2-(pyrrolidin-1-yl)ethyl)isoquinolin-1(2H)-one] was tested. Which “Response Recovered (%)” value did it give?
A: 37%

Q: `O=C(Cn1ccc2cccc(-c3ccc(Cl)c(C(F)(F)F)c3)c2c1=O)N1CC(F)(F)C1` [Example 301, 8-(4-chloro-3-(trifluoromethyl)phenyl)-2-(2-(3,3-difluoroazetidin-1-yl)-2-oxoethyl)isoquinolin-1(2H)-one] was tested. Which “Response Recovered (%)” value did it give?
A: 28%

Q: With `O=C(Cn1ccc2cccc(-c3ccc(F)c(Cl)c3)c2c1=O)N1CCC(F)C1` (centres unmarked) [Example 302, 8-(3-chloro-4-fluorophenyl)-2-(2-(3-fluoropyrrolidin-1-yl)-2-oxoethyl)isoquinolin-1(2H)-one] as the compound, how does the “Response Recovered (%)” value read?
A: 40%

Q: For `O=C(Cn1ccc2cccc(-c3ccc(F)c(Cl)c3)c2c1=O)N1CCCC1` [Example 303, 8-(3-chloro-4-fluorophenyl)-2-(2-oxo-2-(pyrrolidin-1-yl)ethyl)isoquinolin-1(2H)-one], which “Response Recovered (%)” value is on record?
A: 46%

Q: `O=C(Cn1ccc2cccc(-c3ccc(Cl)c(Cl)c3)c2c1=O)N1CCC(F)C1` (centres unmarked) [Example 304, 8-(3,4-dichlorophenyl)-2-(2-(3-fluoropyrrolidin-1-yl)-2-oxoethyl)isoquinolin-1(2H)-one] was tested. Which “Response Recovered (%)” value did it give?
A: 60%

Q: For `O=C(Cn1ccc2cccc(-c3ccc(Cl)c(F)c3)c2c1=O)N1CC(F)(F)C1` [Example 305, 8-(4-chloro-3-fluorophenyl)-2-(2-(3,3-difluoroazetidin-1-yl)-2-oxoethyl)isoquinolin-1(2H)-one], which “Response Recovered (%)” value is on record?
A: 23%

Q: For `O=C(Cn1ccc2cccc(-c3ccc(Cl)c(F)c3)c2c1=O)N1CCC(F)C1` (centres unmarked) [Example 306, 8-(4-chloro-3-fluorophenyl)-2-(2-(3-fluoropyrrolidin-1-yl)-2-oxoethyl)isoquinolin-1(2H)-one], which “Response Recovered (%)” value is on record?
A: 25%

Q: Which “Response Recovered (%)” value does the source give for `O=C(Cn1ccc2cccc(-c3ccc(Cl)c(F)c3)c2c1=O)N1CCCC1` [Example 307, 8-(4-chloro-3-fluorophenyl)-2-(2-oxo-2-(pyrrolidin-1-yl)ethyl)isoquinolin-1(2H)-one] here?
A: 24%

Q: `O=C(Cn1ccc2cccc(-c3ccc(Cl)c(Cl)c3)c2c1=O)N1CCCC1` [Example 308] was tested. Which “Response Recovered (%)” value did it give?
A: 78%

Q: For `O=C(Cn1ccc2cccc(-c3ccc(F)c(Cl)c3)c2c1=O)N1CC(F)(F)C1` [Example 309, 8-(3-chloro-4-fluorophenyl)-2-(2-(3,3-difluoroazetidin-1-yl)-2-oxoethyl)isoquinolin-1(2H)-one], which “Response Recovered (%)” value is on record?
A: 41%

Q: For `O=C(Cn1ccc2ccc(-c3ccc(Cl)c(C(F)(F)F)c3)cc2c1=O)N1CCCC1` [Example 310, 7-(4-chloro-3-(trifluoromethyl)phenyl)-2-(2-oxo-2-(pyrrolidin-1-yl)ethyl)isoquinolin-1(2H)-one], which “Response Recovered (%)” value is on record?
A: 3%

Q: `O=C(Cn1ccc2ccc(-c3ccc(Cl)c(C(F)(F)F)c3)cc2c1=O)N1CCC(F)C1` (centres unmarked) [Example 311, 7-(4-chloro-3-(trifluoromethyl)phenyl)-2-(2-(3-fluoropyrrolidin-1-yl)-2-oxoethyl)isoquinolin-1(2H)-one] was tested. Which “Response Recovered (%)” value did it give?
A: 6%

Q: For `O=C(Cn1ccc2ccc(-c3ccc(Cl)c(C(F)(F)F)c3)cc2c1=O)N1CC(F)(F)C1` [Example 312, 7-(4-chloro-3-(trifluoromethyl)phenyl)-2-(2-(3,3-difluoroazetidin-1-yl)-2-oxoethyl)isoquinolin-1(2H)-one], which “Response Recovered (%)” value is on record?
A: 3%

Q: For `O=C(Cn1ccc2ccc(-c3ccc(F)c(C(F)(F)F)c3)cc2c1=O)N1CCC(F)C1` (centres unmarked) [Example 314, 7-(4-fluoro-3-(trifluoromethyl)phenyl)-2-(2-(3-fluoropyrrolidin-1-yl)-2-oxoethyl)isoquinolin-1(2H)-one], which “Response Recovered (%)” value is on record?
A: 8%

Q: `O=C(Cn1ccc2ccc(-c3ccc(Cl)c(Cl)c3)cc2c1=O)N1CCC(F)C1` (centres unmarked) [Example 315, 7-(3,4-dichlorophenyl)-2-(2-(3-fluoropyrrolidin-1-yl)-2-oxoethyl)isoquinolin-1(2H)-one] was tested. Which “Response Recovered (%)” value did it give?
A: 2%

Q: Which “Response Recovered (%)” value does the source give for `O=C(Cn1ccc2ccc(-c3ccc(Cl)c(Cl)c3)cc2c1=O)N1CCCC1` [Example 316, 7-(3,4-dichlorophenyl)-2-(2-oxo-2-(pyrrolidin-1-yl)ethyl)isoquinolin-1(2H)-one] here?
A: 2%

Q: How did the “Response Recovered (%)” value turn out when `O=C(Cn1cnc2[nH]nc(-c3ccc(Cl)c(C(F)(F)F)c3)c2c1=O)N1CCCC1` [Example 317, 3-(4-chloro-3-(trifluoromethyl)phenyl)-5-(2-oxo-2-(pyrrolidin-1-yl)ethyl)-1H-pyrazolo[3,4-d]pyrimidin-4(5H)-one] was run?
A: 8%
